According to patent US6495683B2, “4-oxo-4,7-dihydro-thieno[2,3-b]pyridine-5-carboxamides as antiviral agents” (Pharmacia and Upjohn Company, priority 1999, dated 2002):
Where a name gives a salt, the structure may show the parent alone. Read-outs that look alike come from different tables or passages of the source. Blank lines part the entries; values can stand above or below the molecule they belong to.

Legend:
HSV polymerase = HSV polymerase (Human herpesvirus 1, UniProt P04293); assay: biochemical
HCMV polymerase = molecular target: T1, HCMV polymerase (Human cytomegalovirus, UniProt P08546); assay: biochemical; conditions: modified SPA assay: compounds diluted in 100% DMSO, 4.5 mM DTT in polymerase buffer; read-out: polymerase IC50 (μM) HCMV
T1 construct: made in house; host or cells: recombinant baculovirus-infected SF-9 cells
Experimental: The HCMV polymerase assay is performed using a scintillation proximity assay (SPA) as described in several references, such as N. D. Cook, et al., Pharmaceutical Manufacturing International, pages 49-53 (1992); K. Takeuchi, Laboratory Practice, September issue (1992); U.S. Pat. No. 4,568,649 (1986); which are incorporated by reference herein. Reactions are performed in 96-well plates. The assay is conducted in 100 μl volume with 5.4 mM HEPE (pH 7.5), 11.7 mM KCl, 4.5 mM MgCl2, 0.36 mg/ml BSA, and 90 nM ^3H-dTTP. Assays are run with and without CHAPS, (3-[(3-cholamidopropyl)-dimethylammonio]-1-propane-sulfonate) at a final concentration of 2 mM. HCMV polymerase is diluted in enzyme dilution buffer containing 50% glycerol, 250 mM NaCl, 10 mM HEPES (pH 7.5), 100 μg/ml BSA, and 0.01% sodium azide. The HCMV polymerase, which is expressed in recombinant baculovirus-infected SF-9 cells and purified according to literature procedures, is added at 10% (or 10 μl) of the final reaction volume, i.e., 100 μl. Compounds are diluted in 50% DMSO and 10 μl are added to each well. Control wells contain an equivalent concentration of DMSO. Unless noted otherwise, reactions are initiated via the addition of 6 nM biotinylated poly(dA)-oligo(dT) template/primer to reaction mixtures containing the enzyme, substrate, and compounds of interest. Plates are incubated in a 25 C or 37 C H2O bath and terminated via the addition of 40 μl/reaction of 0.5 M EDTA (pH 8) per well. Reactions are terminated within the time-frame during which substrate incorporation is linear and varied depending upon the enzyme and conditions used, i.e., 30 min. for HCMV polymerase. Ten μl of streptavidin-SPA beads (20 mg/ml in PBS/10% glycerol) are added following termination of the reaction. Plates are incubated 10 min. at 37 ° C., then equilibrated to room temperature, and counted on a Packard Topcount. Linear regressions are performed and IC50's are calculated using computer software.
A modified version of the above HCMV polymerase assay is performed as described above, but with the following changes: Compounds are diluted in 100% DMSO until final dilution into assay buffer. In the previous assay, compounds are diluted in 50% DMSO. 4.5 mM dithiothreotol (DTT) is added to the polymerase buffer.

VZV polymerase = VZV polymerase (Varicella-zoster virus, UniProt P09252); assay: biochemical
[1] = read-out: polymerase IC50 (μM) HSV
[2] = read-out: polymerase IC50 (μM) VZV

Chain of VZV polymerase (P09252 whole entry): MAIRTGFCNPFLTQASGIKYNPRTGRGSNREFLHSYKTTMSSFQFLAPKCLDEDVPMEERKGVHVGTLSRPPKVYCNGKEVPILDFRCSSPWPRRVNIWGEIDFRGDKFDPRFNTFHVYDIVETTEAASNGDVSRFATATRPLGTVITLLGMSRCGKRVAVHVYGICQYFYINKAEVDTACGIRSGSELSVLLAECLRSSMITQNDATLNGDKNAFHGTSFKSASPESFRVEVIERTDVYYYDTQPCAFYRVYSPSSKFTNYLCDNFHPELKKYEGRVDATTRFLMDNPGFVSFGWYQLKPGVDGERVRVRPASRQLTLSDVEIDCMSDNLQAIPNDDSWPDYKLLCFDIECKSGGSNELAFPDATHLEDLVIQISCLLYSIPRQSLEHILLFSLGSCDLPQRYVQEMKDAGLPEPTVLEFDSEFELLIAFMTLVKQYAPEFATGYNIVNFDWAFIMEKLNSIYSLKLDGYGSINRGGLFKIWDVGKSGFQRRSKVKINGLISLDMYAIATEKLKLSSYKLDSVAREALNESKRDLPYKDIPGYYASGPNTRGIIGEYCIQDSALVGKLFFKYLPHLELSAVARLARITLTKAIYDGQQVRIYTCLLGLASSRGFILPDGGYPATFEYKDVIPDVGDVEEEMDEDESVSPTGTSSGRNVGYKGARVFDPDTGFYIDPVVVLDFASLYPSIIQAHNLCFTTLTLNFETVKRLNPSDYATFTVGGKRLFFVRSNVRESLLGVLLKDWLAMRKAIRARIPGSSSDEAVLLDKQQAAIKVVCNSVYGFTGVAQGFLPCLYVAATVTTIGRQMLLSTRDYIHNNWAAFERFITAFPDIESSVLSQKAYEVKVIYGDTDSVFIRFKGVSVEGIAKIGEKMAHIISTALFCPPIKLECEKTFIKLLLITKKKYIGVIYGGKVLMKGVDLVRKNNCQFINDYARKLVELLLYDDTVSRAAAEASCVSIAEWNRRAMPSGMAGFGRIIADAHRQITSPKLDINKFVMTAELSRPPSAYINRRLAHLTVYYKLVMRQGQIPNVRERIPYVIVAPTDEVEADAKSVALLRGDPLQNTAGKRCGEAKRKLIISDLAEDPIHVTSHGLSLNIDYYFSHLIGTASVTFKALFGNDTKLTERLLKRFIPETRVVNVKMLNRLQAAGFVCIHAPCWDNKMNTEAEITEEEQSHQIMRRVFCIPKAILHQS
Chain of HSV polymerase (P04293 whole entry): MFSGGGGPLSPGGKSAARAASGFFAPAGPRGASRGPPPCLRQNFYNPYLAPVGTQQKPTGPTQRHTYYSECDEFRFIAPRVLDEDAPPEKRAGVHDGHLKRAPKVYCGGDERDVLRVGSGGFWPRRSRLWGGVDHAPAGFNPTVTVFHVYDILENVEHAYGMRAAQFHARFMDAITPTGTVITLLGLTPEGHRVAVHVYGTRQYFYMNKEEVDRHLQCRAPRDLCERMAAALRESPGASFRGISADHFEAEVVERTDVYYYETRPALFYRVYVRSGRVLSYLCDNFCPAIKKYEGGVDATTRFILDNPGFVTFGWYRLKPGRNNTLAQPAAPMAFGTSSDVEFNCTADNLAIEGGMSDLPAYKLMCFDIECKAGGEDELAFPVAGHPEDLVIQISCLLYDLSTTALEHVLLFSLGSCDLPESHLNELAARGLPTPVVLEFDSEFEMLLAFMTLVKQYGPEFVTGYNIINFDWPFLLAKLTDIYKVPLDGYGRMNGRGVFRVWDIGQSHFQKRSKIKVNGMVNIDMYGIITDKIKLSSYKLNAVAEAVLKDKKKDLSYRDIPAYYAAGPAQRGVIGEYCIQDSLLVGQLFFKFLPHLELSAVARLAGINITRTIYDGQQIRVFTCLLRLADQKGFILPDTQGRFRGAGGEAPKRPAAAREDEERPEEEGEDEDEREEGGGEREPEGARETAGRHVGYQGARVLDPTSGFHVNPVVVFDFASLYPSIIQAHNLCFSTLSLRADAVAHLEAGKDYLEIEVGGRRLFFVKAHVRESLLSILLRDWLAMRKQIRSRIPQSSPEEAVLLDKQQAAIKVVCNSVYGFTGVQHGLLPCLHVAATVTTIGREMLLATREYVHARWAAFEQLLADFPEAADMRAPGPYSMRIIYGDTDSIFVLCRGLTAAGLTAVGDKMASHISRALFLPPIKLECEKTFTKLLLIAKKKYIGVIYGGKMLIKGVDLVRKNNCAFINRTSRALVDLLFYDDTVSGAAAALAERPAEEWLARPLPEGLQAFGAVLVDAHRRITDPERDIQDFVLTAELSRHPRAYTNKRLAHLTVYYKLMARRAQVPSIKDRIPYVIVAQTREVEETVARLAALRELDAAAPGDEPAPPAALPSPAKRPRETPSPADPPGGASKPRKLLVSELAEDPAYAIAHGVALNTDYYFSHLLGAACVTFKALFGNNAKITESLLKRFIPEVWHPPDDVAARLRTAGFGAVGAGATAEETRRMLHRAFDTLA
T1 sequence (P08546 whole entry): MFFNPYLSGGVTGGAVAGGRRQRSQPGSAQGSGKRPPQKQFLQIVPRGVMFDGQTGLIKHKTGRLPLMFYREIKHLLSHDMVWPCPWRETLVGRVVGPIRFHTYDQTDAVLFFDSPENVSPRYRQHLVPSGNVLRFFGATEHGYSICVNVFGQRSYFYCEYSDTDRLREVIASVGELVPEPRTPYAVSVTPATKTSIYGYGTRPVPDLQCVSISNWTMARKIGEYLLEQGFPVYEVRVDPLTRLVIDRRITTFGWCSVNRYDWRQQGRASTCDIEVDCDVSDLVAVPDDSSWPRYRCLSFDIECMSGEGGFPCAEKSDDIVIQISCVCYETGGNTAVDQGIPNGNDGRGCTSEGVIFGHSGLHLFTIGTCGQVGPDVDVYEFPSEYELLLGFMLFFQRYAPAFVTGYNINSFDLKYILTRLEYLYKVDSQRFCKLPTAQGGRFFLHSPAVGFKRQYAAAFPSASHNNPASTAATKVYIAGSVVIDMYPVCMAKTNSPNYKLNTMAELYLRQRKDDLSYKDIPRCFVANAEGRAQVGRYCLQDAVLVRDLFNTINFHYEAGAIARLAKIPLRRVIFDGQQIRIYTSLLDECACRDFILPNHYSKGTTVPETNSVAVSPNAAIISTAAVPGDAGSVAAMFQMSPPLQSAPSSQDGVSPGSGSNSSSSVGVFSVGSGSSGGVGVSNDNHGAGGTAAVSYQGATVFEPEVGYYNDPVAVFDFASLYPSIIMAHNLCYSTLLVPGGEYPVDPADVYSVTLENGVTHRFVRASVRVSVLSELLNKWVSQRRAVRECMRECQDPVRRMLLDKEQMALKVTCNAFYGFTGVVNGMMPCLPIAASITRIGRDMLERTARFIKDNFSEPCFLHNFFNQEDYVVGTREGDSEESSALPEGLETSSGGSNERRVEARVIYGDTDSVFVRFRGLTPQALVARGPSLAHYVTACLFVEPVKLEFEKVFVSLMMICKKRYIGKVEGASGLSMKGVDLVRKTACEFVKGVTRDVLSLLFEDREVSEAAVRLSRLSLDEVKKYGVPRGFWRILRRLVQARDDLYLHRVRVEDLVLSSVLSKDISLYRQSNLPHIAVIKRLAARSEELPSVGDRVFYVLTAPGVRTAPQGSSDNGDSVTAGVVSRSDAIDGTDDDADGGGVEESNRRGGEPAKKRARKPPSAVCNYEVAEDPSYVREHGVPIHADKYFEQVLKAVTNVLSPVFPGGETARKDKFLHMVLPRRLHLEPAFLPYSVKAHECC

Structure (SMILES): O=C(NCc1ccc(Cl)cc1)c1cnc2sc(C#CCO)cc2c1O [Example 5, N-(4-Chlorobenzyl)-4-hydroxy-2-(3-hydroxy-1-propynyl)thieno[2,3-b]pyridine-5-carboxamide]
IC50 (HSV polymerase; [1]): 0.88 µM | IC50 (HCMV polymerase): 2.5 µM | melting point: 233 to 236 °C | IC50 (VZV polymerase; [2]): 0.6 µM

Structure (SMILES): Cn1cc(C(=O)NCc2ccc(Cl)cc2)c(=O)c2cc(CCCO)sc21 [Example 25, N-(4-Chlorobenzyl)-2-(3-hydroxypropyl)-7-methyl4-oxo-4,7-7dihydrothieno[2,3-b]pyridine-5-carboxamide]
IC50 (HSV polymerase; [1]): 0.45 µM | IC50 (HCMV polymerase): 0.4 µM | IC50 (VZV polymerase): 0.46 µM

Structure (SMILES): Cn1cc(C(=O)NCc2ccc(Cl)cc2)c(=O)c2cc(CN3CCOCC3)sc21 [Example 36, N-(4-Chlorobenzyl)-7-methyl-2-(4-morpholinylmethyl)-4-oxo-4,7-dihydrothieno[2,3-b]pyridine-5-carboxamide]
IC50 (HSV polymerase): 1.2 µM | IC50 (HCMV polymerase): 1.8 µM | IC50 (VZV polymerase; [2]): 0.77 µM

Next, values leading:

IC50 (HSV polymerase; [1]): 0.89 µM | IC50 (HCMV polymerase): 0.92 µM | IC50 (VZV polymerase; [2]): 0.28 µM
Structure (SMILES): O=C(NCc1ccc(Cl)cc1)c1cn(CCO)c2sc(C#CCO)cc2c1=O [Example 17, N-(4-Chlorobenzyl)-7-(2-hydroxyethyl)-2-(3-hydroxy-1-5 propynyl)-4-oxo-4,7-dihydrothieno[2,3-b]pyridine-5-carboxamide]

IC50 (HSV polymerase; [1]): 0.95 µM | IC50 (HCMV polymerase): 1.7 µM | IC50 (VZV polymerase; [2]): 0.39 µM
Structure (SMILES): CCN(CC)CCn1cc(C(=O)NCc2ccc(Cl)cc2)c(=O)c2cc(C#CCO)sc21 [Example 18, N-(4-Chlorobenzyl)-7-[2-(diethylamino)ethyl]-2-(3hydroxy-1-propynyl)4-oxo4,7-dihydrothieno[2,3-b]pyridine-5-carboxamide hydrochloride]

IC50 (HSV polymerase; [1]): 0.91 µM | IC50 (HCMV polymerase): 2.2 µM | melting point: 185 to 186 °C | IC50 (VZV polymerase; [2]): 0.55 µM
Structure (SMILES): O=C(NCc1ccc(Cl)cc1)c1cnc2sc(CCCO)cc2c1O [Example 8, N-(4-Chlorobenzyl)4-hydroxy-2-(3-hydroxpropyl)thieno[2,3-b]pyridine-5-carboxamide]

IC50 (HSV polymerase; [1]): 3.2 µM | IC50 (HCMV polymerase): 4.7 µM | IC50 (VZV polymerase; [2]): 1.9 µM
Structure (SMILES): CCn1cc(C(=O)NCc2ccc(Cl)cc2)c(=O)c2cc(C#CCCO)sc21 [Example 15, N-(4-Chlorobenzyl)-7-ethyl-2-(4-hydroxy-1-butynyl)-4-oxo-4,7-dihydrothieno[2,3-b]pyridine-5-carboxamide]
